The series addresses HSD17B13. As to conditions: ASO, HepaRG.

For 61 sequences, target mRNA inhibition results are on record in the OligoGym collection.

After the bases stand the sugars from the 5' end (letter, count) and the backbone: PS all phosphorothioate, else s phosphorothioate and o phosphodiester by linkage. Methylation of C is not given here. e = 2'-O-(2-methoxyethyl) (MOE); k = constrained ethyl (cEt); d = 2'-deoxy (DNA); m = 2'-O-methyl

The sequence “GCAAGCCAACAGAGAG (sugars k3 d1 m1 d8 k3, PS)” displayed a target mRNA inhibition (1 µM) of 26%.
On the same count and under the same terms, the value for CAAATTTGCTGGAACT (sugars k3 d10 k3, PS) was 39%.
As to “CCAGTACAGTTCCTTT (sugars k3 d9 k3 e1, PS)”, the target mRNA inhibition by setting is: (0.02 µM) 10%; (0.078 µM) 20%; (0.313 µM) 43%; (1 µM) 76%; (1.25 µM) 73%; (5 µM) 83%.
Turning to AGTGCATCTTAAGATA (sugars k3 d10 k3, PS), the target mRNA inhibition (1 µM) stood at 57%.
Same read-out and setting: next, ATAAAAATCGCTGCTT (sugars k3 d10 k3, PS): 11%; AACTGAAACGATCCTC (sugars k3 d10 k3, PS): 52%.
On the same count and under the same terms, next, GTAAGGAATCCCTTCG (sugars k3 d10 k3, PS): 22%.
Consider TATAACTACAAGAGGT (sugars k3 d10 k3, PS), for which the target mRNA inhibition (1 µM) is 46%.
As to GCAAATACAGCAGTAC (sugars k3 d10 k3, PS), the target mRNA inhibition (1 µM) was determined as 56%.
For “AGGTTGAGATAAAGCT (sugars k3 d9 k3 e1, PS)”, the target mRNA inhibition is 0% (0.02 µM); 23% (0.078 µM); 46% (0.313 µM); 71% (1 µM); 64% (1.25 µM); 77% (5 µM).
Under “1 µM”, TGTCCCAGCATTATTC (sugars k3 d10 k3, PS) displayed a target mRNA inhibition of 31%.
As to CTGCCAGGGAATGCTC (sugars k3 d10 k3, PS), the target mRNA inhibition (1 µM) was 23%.
With TGCCAACACTAATCTC (sugars k3 d10 k3, PS), the target mRNA inhibition (1 µM) was 30%.
The same measure, in the same setting: next, TTAGTTGGTAGCTTGC (sugars k3 d10 k3, PS): 72%.
Same read-out and setting: the value for TCATAAAGGTGGGATA (sugars k3 d10 k3, PS) was 40%.
Still for that read-out and setting: the value for “CAGGUTGAGATAAAGC (sugars k3 d1 m1 d8 k3, PS)” was 55%; that for “TGATGTAGTGGGAGTC (sugars kkdddddddddkekek, PS)” was 46%; that for AAAGGTGGGATAAACT (sugars k3 d10 k3, PS) was 33%.
Consider TTCTACACCACACTAA (sugars k3 d10 k3, PS), for which the target mRNA inhibition (1 µM) came to 12%.
In turn, GTTGCACCGTTTTGGG (sugars k3 d10 k3, PS) gave a target mRNA inhibition (1 µM) of 56%.
The sequence GAAGTTAGTATAGTTA (sugars k3 d10 k3, PS) had a target mRNA inhibition (1 µM) of 59%.
Under “1 µM”, “TTGGAATGCTACTTGA (sugars k3 d1 m1 d8 k3, PS)” registered a target mRNA inhibition of 65%.
Regarding “ACACTAATATTGAGGC (sugars kkdddddddddkekek, PS)”, the target mRNA inhibition (1 µM) came out at 55%.
On the same count and under the same terms, next, “AGACTTTGAGACTCTT (sugars kkdddddddddkekek, PS)”: 55%; TGGTTCAGTCCTTGTG (sugars k3 d10 k3, PS): 50%.
Turning to TCACCACGATTGTTAC (sugars k3 d10 k3, PS), the target mRNA inhibition (1 µM) was 34%.
Same read-out and setting: the value for AAGTGCTTTTGTGATC (sugars k3 d10 k3, PS) was 41%.
Regarding GCATATTCATTTGGCC (sugars k3 d10 k3, PS), the target mRNA inhibition (1 µM) was found to be 6%.
ATACTGTCCCAGCATT (sugars k3 d10 k3, PS) returned a target mRNA inhibition (1 µM) of 32%.
For the sequence “TTAAAATAGAGTCGGT (sugars kkdddddddddkekek, PS)”, the target mRNA inhibition (1 µM) was 51%.
On the same count and under the same terms, next, “TGGGACCAAGGATATA (sugars k3 d9 k3 e1, PS)”: 55%; “TCCTGTGTTAGCTTTA (sugars k3 d1 m1 d8 k3, PS)”: 72%; “TAATACATTAGCAAGC (sugars k3 d9 k3 e1, PS)”: 35%.
On the same count and under the same terms, next, “CTACACTAATATTGAG (sugars k3 d1 m1 d8 k3, PS)”: 29%.
In the case of TTGGCCGAGGAGGGCG (sugars k3 d10 k3, PS), the target mRNA inhibition (1 µM) was 3%.
Still for that read-out and setting: next, CACGAAGCCTGAATGC (sugars k3 d10 k3, PS): 24%.
On the same count and under the same terms, the value for “GTATCTTATAAGACTA (sugars kkdddddddddkekek, PS)” was 61%; that for CAAGAGGATAGTCCAT (sugars k3 d10 k3, PS) was 58%.
Same read-out and setting: the value for TTGTTGATATTCTGTG (sugars k3 d10 k3, PS) was 52%; that for TTCCGAAAAAAGTGGA (sugars k3 d10 k3, PS) was 13%.
Turning to ACTTTTGGTGGACTTC (sugars k3 d10 k3, PS), the target mRNA inhibition (1 µM) was 0%.
The same measure, in the same setting: the value for “AAATAGAGTCGGTCAC (sugars kkdddddddddkekek, PS)” was 50%; that for “TTAGTATAGTTATCTT (sugars kkdddddddddkekek, PS)” was 33%.
Same read-out and setting: the value for AGTATTCCATCTATCA (sugars k3 d10 k3, PS) was 62%.
Same read-out and setting: the value for TGACATAACTTCATAG (sugars k3 d10 k3, PS) was 51%; that for CATCGATGGAAGAAGT (sugars k3 d10 k3, PS) was 16%.
Regarding TTATAACTACAAGAGG (sugars k3 d10 k3, PS), the target mRNA inhibition reads like this: (0.02 µM) 1%; (0.078 µM) 25%; (0.313 µM) 26%; (1 µM) 68%; (1.25 µM) 60%; (5 µM) 82%.
Turning to TAGAACTCCCAACCCA (sugars k3 d10 k3, PS), the target mRNA inhibition (1 µM) turned out to be 44%.
On the same count and under the same terms, the value for TGCAGATTATTATGTG (sugars k3 d10 k3, PS) was 38%.
In turn, “AATAUTGAGGCACTGG (sugars k3 d1 m1 d8 k3, PS)” showed a target mRNA inhibition (1 µM) of 48%.
For the setting “1 µM”, ATGGCTACAGATTGGA (sugars k3 d10 k3, PS) gave a target mRNA inhibition of 72%.
CGTTTAAATCAGAGCA (sugars k3 d10 k3, PS): the target mRNA inhibition (1 µM) stood at 54%.
As to “AGAGTTGCACCGTTTT (sugars kkdddddddddkekek, PS)”, the target mRNA inhibition is, setting by setting: (0.02 µM) 6%; (0.078 µM) 18%; (0.313 µM) 38%; (1 µM) 80%; (1.25 µM) 63%; (5 µM) 81%.
For the setting “1 µM”, “TCTTGACAATGGTTGC (sugars kkdddddddddkekek, PS)” had a target mRNA inhibition of 37%.
In the case of TATAGTTATCTTCTCA (sugars k3 d10 k3, PS), the target mRNA inhibition (1 µM) worked out at 46%.
The same measure, in the same setting: the value for GTCTAAACATCTCTGG (sugars k3 d10 k3, PS) was 58%.
The same measure, in the same setting: the value for “TTGAACAGTCTTAAAC (sugars k3 d9 k3 e1, PS)” was 35%.
With AACAACCCAGCCTCGG (sugars k3 d10 k3, PS), the target mRNA inhibition (1 µM) was 20%.
As for TCCAAGTAGGAGTAGA (sugars k3 d10 k3, PS), the target mRNA inhibition (1 µM) amounted to 24%.
As for “TAAGCAGAATTGTGAA (sugars kkdddddddddkekek, PS)”, the target mRNA inhibition (1 µM) turned out to be 29%.
Regarding ACCTTGAATGAGTGGT (sugars k3 d10 k3, PS), under “1 µM”, the target mRNA inhibition amounted to 26%.
